Reference: the NIST ThermoML archive (doi:10.1021/acs.jced.7b01004)
Numbers after ± are expanded uncertainties.

Legend:
[1] = refractive index (Na D-line) (dimensionless); xn = mol fraction of the nth substance listed; details: 293.15 K; 99.6 kPa; Liquid; Standard Abbe refractometry; x1 = 0.5
[2] = xn = mol fraction of the nth substance listed; details: 99.6 kPa, Liquid, x1 = 0.5; for viscosity: Concentric cylinders viscometry; for mass density: Vibrating tube method

## CCCCn1cc[n+](C)c1.CS(=O)(=O)[O-] [1-butyl-3-methylimidazolium methanesulfonate] + NC(N)=O
[1]
  refractive index: 1.493 ± 0.001
[2]; 293.15 K
  viscosity: 1892.9 ± 93 mPa·s
  mass density: 1202.2 ± 1.2 kg/m3
[2]; 303.15 K
  viscosity: 686.69 ± 25 mPa·s
  mass density: 1195.6 ± 1.2 kg/m3
[2]; 313.15 K
  viscosity: 295.72 ± 7.4 mPa·s
  mass density: 1189.2 ± 1.2 kg/m3
[2]; 323.15 K
  viscosity: 145.85 ± 2.3 mPa·s
  mass density: 1182.7 ± 1.2 kg/m3
[2]; 333.15 K
  viscosity: 80.41 ± 0.74 mPa·s
  mass density: 1176.3 ± 1.2 kg/m3
